{"source": "BindingDB's records for doi:10.1074/jbc.M113.493767", "about": "(Novartis Institute For Tropical Diseases, 2013)", "target": "ATP-dependent Clp protease ATP-binding subunit ClpC1 (Mycobacterium tuberculosis (strain ATCC 25618 / H37Rv), UniProt P9WPC9)", "sequence (P9WPC9 whole entry)": "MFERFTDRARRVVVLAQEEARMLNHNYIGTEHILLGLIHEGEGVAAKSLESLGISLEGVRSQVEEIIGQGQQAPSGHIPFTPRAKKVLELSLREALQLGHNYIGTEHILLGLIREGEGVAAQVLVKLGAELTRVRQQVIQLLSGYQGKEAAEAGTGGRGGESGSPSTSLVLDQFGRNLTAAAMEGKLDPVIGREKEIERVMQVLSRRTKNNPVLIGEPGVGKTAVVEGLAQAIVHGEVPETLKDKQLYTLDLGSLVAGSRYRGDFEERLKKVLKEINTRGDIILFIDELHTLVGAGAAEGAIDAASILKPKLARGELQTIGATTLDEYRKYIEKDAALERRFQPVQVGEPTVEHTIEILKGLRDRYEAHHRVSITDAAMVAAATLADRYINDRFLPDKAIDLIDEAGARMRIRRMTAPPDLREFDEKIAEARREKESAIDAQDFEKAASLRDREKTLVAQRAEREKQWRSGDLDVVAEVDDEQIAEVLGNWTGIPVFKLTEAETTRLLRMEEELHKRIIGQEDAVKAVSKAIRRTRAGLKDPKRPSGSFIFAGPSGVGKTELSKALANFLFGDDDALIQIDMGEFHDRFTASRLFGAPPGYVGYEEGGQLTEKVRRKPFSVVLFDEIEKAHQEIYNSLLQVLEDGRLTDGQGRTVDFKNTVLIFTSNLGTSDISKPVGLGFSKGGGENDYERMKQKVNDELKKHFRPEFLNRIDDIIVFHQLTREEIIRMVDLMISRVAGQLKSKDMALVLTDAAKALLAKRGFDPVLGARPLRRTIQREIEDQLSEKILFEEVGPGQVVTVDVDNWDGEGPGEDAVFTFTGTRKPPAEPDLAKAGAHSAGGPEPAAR", "experiment": "Isothermal Titration Calorimetry (ITC)", "details": "pH 7.5; 25 °C", "experimental": "Isothermal titration calorimetry experiments were performed using an iTC200 (GEHealthcare) at 25 °C, with 15-20 μM ClpC1 (in 20 mM Tris-HCl, pH 7.5, 300 mM NaCl, 1 mM EDTA, 1 mM Tris(2-carboxyethyl) phosphine, 9% DMSO) in the sample cell. Typically, 19 injections of 2 μl of 150-200 μM CymA1 solution in the same bufferwere injected into the sample cell at 2.5-min intervals.", "note": "Numbered stars: 1 amine (or outer) side, 2 acyl side, 3 side chain; on linkers, the order of the positions; unused ones are H or OH. Square brackets hold non-standard residues; d marks the D form. Peptide text beside a SMILES is read from it. X1 = CC(C)([C@@H](O)CNCCCN)n1cc([C@@H](O)[C@H](N[*:1])C(=O)[*:2])c2ccccc21; Ala(3R-Me,3-isobutenyl) = CC(C)=C[C@@H](C)[C@H](N)C(=O)O; NMeLeu(5-OH,4R) = CN[C@@H](C[C@@H](C)CO)C(=O)O; Phe(βR-OMe) = CO[C@H](c1ccccc1)[C@H](N)C(=O)O; NMeL = CN[C@@H](CC(C)C)C(=O)O", "data": [{"smiles": "CO[C@H](c1ccccc1)[C@@H]1NC(=O)[C@H](C)NC(=O)[C@H](C[C@@H](C)CO)N(C)C(=O)[C@H]([C@H](O)c2cn(C(C)(C)[C@@H](O)CNCCCN)c3ccccc23)NC(=O)[C@H]([C@H](C)C=C(C)C)NC(=O)[C@H](CC(C)C)N(C)C(=O)[C@H](C(C)C)NC1=O", "note": "[Cyclomarin A1 (CymA1)] (cyclo(A[Phe(βR-OMe)]V[NMeL][Ala(3R-Me,3-isobutenyl)][X1][NMeLeu(5-OH,4R)]))", "values": [{"measurement": "Kd", "value": 17.5, "unit": "nM"}]}]}
